Here are results for 3 compounds from publication PMC4685510, “A Cell Biologist’s Field Guide to Aurora Kinase Inhibitors” (Frontiers in Oncology, 2015).

Each structure is given as a SMILES string.

Assay in all cases: biochemical
Common to all, as to format: biochemical

Test [1] concerns the target 363 human kinases (including Aurora A/B/C) (Homo sapiens, UniProt P07949). The note with it: RET; for remaining activity at 0.5 µM / remaining activity at 0.1 µM: read-out: % Enzyme Activity (relative to DMSO controls); for remaining activity at 0.1 µM: 100 nM.
From the text: (§1) However, the Aurora A/B selectivity ratios derived from our in vitro and in vivo data can be compared to prioritize inhibitors.
Test [2] deals with 363 human kinases (including Aurora A/B/C) (Homo sapiens, UniProt P22612). The note with it: PKAcg; for remaining activity at 0.5 µM / remaining activity at 0.1 µM: read-out: % Enzyme Activity (relative to DMSO controls); for remaining activity at 0.1 µM: 100 nM.
Chain of 363 human kinases (including Aurora A/B/C) (Homo sapiens, UniProt P22612) (P22612 whole entry): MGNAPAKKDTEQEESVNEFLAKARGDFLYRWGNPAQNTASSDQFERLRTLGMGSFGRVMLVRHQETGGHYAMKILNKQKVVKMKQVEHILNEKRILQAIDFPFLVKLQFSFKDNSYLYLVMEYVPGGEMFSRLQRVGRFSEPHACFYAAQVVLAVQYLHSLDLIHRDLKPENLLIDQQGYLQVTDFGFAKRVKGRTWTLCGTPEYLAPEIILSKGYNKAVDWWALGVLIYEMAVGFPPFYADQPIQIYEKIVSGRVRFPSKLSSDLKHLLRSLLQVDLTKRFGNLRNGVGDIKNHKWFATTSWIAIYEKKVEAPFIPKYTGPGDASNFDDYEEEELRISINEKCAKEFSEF
From the text: as §1
Test [3] deals with 363 human kinases (including Aurora A/B/C) (Homo sapiens, UniProt P53671). To be noted: LIMK2; for remaining activity at 0.5 µM / remaining activity at 0.1 µM: read-out: % Enzyme Activity (relative to DMSO controls); for remaining activity at 0.1 µM: 100 nM.
From the text: as §1
Test [4] deals with 363 human kinases (including Aurora A/B/C) (Homo sapiens, UniProt Q5S007). The note with it: LRRK2; for remaining activity at 0.5 µM / remaining activity at 0.1 µM: read-out: % Enzyme Activity (relative to DMSO controls); for remaining activity at 0.1 µM: 100 nM.
From the text: as §1
In test [5] the target is 363 human kinases (including Aurora A/B/C) (Homo sapiens, UniProt Q8IU85). To be noted: CAMK1d, [ATP] 2.5 µM; for remaining activity at 0.5 µM / remaining activity at 0.1 µM: read-out: % Enzyme Activity (relative to DMSO controls); for remaining activity at 0.1 µM: 100 nM.
Chain of 363 human kinases (including Aurora A/B/C) (Homo sapiens, UniProt Q8IU85) (Q8IU85 whole entry): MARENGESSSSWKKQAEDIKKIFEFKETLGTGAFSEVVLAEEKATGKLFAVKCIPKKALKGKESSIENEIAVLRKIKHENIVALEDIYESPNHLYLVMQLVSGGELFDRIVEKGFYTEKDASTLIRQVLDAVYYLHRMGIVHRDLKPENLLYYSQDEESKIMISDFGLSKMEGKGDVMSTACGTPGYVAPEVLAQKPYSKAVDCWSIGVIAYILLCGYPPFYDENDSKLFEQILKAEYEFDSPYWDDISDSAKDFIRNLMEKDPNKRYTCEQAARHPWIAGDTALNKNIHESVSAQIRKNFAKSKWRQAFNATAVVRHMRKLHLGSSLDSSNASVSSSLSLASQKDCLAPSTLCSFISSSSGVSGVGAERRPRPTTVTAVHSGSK
From the text: as §1
Test [6] deals with T1, 363 human kinases (including Aurora A/B/C) (Homo sapiens, UniProt Q8NE63).
T1 sequence (Q8NE63 1-616): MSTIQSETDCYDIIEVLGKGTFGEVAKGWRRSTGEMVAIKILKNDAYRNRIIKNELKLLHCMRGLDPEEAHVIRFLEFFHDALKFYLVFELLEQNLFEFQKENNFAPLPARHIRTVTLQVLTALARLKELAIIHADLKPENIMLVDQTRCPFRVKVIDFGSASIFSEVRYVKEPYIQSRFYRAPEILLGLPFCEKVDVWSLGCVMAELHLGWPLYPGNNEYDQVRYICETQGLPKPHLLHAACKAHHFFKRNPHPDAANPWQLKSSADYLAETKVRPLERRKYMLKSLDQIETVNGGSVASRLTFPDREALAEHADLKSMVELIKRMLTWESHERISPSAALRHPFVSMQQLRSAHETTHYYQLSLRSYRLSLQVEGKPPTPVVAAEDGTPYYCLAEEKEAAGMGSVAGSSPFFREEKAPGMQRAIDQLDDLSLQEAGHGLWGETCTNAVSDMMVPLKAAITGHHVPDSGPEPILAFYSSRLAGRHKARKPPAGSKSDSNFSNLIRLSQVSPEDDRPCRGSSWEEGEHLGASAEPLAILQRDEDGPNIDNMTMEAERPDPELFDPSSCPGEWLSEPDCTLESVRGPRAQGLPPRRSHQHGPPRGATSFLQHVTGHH
To be noted: HIPK4; for remaining activity at 0.5 µM / remaining activity at 0.1 µM: read-out: % Enzyme Activity (relative to DMSO controls); for remaining activity at 0.1 µM: 100 nM.
From the text: as §1

Test [7] has as its target T2, 363 human kinases (including Aurora A/B/C) (Homo sapiens, UniProt Q96PF2).
T2 sequence (Q96PF2 1-358): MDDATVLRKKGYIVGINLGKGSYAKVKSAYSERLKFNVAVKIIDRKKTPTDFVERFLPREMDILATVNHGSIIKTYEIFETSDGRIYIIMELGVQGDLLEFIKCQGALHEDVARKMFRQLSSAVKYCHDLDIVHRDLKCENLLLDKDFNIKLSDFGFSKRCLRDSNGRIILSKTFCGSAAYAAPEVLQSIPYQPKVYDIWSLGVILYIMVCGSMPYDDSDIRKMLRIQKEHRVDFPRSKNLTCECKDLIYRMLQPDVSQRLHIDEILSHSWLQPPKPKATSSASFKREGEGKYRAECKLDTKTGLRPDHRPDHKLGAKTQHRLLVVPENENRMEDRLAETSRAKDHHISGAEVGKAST
To be noted: TSSK2; for remaining activity at 0.5 µM / remaining activity at 0.1 µM: read-out: % Enzyme Activity (relative to DMSO controls); for remaining activity at 0.1 µM: 100 nM.
From the text: as §1

For test [8], the target named is 363 human kinases (including Aurora A/B/C) (Homo sapiens, UniProt Q9BUB5). The note with it: MNK1; for remaining activity at 0.5 µM / remaining activity at 0.1 µM: read-out: % Enzyme Activity (relative to DMSO controls); for remaining activity at 0.1 µM: 100 nM.
Chain of 363 human kinases (including Aurora A/B/C) (Homo sapiens, UniProt Q9BUB5) (Q9BUB5 whole entry): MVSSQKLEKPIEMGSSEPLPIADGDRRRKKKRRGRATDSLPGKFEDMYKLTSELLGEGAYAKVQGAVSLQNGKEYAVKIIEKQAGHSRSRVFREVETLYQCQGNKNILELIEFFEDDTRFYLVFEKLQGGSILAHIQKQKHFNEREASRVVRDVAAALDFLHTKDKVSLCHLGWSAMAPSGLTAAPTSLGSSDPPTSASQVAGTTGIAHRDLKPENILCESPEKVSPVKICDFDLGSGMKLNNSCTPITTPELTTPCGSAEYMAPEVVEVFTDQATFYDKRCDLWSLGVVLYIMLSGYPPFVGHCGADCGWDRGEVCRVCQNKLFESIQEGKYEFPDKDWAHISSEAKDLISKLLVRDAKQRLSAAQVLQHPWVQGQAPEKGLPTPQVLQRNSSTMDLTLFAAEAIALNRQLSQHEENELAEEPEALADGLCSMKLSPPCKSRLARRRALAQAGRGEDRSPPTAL
From the text: as §1
The target in test [9] is T3, 363 human kinases (including Aurora A/B/C) (Homo sapiens, UniProt Q9H2K8).
T3 sequence (Q9H2K8 1-898): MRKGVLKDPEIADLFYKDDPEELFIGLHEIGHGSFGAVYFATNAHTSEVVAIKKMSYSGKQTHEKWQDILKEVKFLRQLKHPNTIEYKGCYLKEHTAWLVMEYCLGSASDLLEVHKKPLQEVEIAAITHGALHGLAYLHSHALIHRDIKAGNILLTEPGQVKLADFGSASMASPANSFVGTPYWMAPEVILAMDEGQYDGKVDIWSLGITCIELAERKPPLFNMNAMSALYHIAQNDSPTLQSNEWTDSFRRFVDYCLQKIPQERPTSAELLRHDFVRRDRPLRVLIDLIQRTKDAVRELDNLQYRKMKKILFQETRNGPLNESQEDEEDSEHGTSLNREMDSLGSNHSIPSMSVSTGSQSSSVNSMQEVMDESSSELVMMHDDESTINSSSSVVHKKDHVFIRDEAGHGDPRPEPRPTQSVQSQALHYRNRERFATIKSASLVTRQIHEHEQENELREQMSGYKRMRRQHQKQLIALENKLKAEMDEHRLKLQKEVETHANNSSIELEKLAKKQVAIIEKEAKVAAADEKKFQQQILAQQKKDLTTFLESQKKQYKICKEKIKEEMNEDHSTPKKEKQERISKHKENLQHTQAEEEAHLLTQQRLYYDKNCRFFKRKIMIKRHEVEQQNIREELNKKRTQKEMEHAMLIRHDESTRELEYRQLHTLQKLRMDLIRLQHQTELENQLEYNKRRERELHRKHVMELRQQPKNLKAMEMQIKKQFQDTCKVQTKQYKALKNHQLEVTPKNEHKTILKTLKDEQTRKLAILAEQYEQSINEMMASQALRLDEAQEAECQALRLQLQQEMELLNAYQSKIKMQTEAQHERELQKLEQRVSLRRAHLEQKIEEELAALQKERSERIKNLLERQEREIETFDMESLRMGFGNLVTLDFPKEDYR
To be noted: TAOK3/JIK; for remaining activity at 0.5 µM / remaining activity at 0.1 µM: read-out: % Enzyme Activity (relative to DMSO controls); for remaining activity at 0.1 µM: 100 nM.
From the text: as §1

In test [10] the target is 363 human kinases (including Aurora A/B/C) (Homo sapiens, UniProt Q9P0L2). To be noted: MARK1; for remaining activity at 0.5 µM / remaining activity at 0.1 µM: read-out: % Enzyme Activity (relative to DMSO controls); for remaining activity at 0.1 µM: 100 nM.
From the text: as §1
The target in test [11] is 363 human kinases (including Aurora A/B/C) (Homo sapiens, UniProt Q9P289). The note with it: MST4; for remaining activity at 0.5 µM / remaining activity at 0.1 µM: read-out: % Enzyme Activity (relative to DMSO controls); for remaining activity at 0.1 µM: 100 nM.
Chain of 363 human kinases (including Aurora A/B/C) (Homo sapiens, UniProt Q9P289) (Q9P289 whole entry): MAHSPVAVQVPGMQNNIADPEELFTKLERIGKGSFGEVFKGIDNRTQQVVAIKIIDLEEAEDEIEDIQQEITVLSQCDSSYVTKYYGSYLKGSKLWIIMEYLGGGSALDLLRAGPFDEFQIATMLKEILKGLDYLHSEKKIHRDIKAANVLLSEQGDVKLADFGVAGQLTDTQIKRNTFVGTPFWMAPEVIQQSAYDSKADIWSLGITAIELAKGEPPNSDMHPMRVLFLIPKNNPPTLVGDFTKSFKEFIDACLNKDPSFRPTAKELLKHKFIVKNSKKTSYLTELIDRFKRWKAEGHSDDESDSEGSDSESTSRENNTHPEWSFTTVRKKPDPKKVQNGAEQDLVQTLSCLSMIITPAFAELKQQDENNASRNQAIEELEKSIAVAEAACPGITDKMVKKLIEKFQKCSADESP
From the text: as §1
The target of test [12] is 363 human kinases (including Aurora A/B/C) (Homo sapiens, UniProt Q9Y3S1). The note with it: WNK2; for remaining activity at 0.5 µM / remaining activity at 0.1 µM: read-out: % Enzyme Activity (relative to DMSO controls); for remaining activity at 0.1 µM: 100 nM.
Chain of 363 human kinases (including Aurora A/B/C) (Homo sapiens, UniProt Q9Y3S1) (Q9Y3S1 whole entry): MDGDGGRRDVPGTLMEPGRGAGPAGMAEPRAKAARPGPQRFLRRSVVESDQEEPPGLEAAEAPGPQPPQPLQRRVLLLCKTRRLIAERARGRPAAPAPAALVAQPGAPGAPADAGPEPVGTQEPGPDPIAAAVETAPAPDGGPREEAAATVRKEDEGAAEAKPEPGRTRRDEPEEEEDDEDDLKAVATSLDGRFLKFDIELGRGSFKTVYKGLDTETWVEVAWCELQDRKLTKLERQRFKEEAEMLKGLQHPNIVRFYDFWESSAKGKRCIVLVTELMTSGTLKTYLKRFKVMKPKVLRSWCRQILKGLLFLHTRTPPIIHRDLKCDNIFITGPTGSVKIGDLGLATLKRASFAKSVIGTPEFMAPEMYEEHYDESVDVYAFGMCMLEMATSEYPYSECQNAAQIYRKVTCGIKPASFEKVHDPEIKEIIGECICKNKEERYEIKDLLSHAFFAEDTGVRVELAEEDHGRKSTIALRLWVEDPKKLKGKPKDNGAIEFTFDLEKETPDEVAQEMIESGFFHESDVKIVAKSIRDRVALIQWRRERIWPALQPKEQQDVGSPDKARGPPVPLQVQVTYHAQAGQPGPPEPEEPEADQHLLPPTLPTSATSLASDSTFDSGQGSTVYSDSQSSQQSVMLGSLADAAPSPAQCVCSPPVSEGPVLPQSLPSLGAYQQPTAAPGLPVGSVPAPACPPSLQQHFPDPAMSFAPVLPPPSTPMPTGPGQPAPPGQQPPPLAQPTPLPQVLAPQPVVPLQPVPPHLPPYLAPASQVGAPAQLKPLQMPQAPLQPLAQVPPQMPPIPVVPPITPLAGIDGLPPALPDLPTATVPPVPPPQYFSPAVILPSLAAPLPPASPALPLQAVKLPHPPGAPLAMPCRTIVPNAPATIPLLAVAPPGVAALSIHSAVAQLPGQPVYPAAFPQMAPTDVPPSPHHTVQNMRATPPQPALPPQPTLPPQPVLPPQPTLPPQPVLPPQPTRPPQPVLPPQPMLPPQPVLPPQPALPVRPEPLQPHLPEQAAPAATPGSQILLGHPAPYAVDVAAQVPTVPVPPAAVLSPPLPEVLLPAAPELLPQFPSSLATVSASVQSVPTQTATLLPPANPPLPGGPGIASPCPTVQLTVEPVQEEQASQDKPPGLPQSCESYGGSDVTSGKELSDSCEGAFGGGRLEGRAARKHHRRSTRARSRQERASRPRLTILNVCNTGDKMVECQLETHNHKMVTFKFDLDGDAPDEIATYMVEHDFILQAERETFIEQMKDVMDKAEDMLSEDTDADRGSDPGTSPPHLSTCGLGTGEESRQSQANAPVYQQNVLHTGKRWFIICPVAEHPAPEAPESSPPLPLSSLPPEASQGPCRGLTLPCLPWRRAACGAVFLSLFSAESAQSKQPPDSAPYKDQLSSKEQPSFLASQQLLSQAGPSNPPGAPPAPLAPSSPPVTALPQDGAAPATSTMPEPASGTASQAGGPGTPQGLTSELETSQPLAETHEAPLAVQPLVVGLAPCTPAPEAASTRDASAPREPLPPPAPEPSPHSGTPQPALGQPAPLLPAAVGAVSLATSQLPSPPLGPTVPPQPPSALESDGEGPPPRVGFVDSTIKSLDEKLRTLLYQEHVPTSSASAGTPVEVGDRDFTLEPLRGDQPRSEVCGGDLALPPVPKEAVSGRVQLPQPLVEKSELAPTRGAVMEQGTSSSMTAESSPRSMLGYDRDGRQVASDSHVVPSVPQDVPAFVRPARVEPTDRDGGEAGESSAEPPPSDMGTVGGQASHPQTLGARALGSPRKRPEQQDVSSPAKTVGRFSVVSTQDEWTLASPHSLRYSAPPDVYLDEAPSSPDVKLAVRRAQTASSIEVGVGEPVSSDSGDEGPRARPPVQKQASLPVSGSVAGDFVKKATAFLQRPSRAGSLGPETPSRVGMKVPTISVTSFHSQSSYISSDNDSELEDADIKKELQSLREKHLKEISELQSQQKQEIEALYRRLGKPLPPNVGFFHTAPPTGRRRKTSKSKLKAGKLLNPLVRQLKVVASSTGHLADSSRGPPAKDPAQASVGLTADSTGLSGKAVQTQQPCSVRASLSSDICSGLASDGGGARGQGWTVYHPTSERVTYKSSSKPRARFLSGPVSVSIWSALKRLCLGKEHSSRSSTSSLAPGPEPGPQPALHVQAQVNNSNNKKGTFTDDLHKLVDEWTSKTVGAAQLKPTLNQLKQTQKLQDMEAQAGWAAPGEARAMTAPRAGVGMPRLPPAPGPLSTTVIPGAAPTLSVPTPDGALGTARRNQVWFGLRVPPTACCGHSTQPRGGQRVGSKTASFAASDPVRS
From the text: as §1

Chain of 363 human kinases (including Aurora A/B/C) (Homo sapiens, UniProt P07949) (P07949 29-1114): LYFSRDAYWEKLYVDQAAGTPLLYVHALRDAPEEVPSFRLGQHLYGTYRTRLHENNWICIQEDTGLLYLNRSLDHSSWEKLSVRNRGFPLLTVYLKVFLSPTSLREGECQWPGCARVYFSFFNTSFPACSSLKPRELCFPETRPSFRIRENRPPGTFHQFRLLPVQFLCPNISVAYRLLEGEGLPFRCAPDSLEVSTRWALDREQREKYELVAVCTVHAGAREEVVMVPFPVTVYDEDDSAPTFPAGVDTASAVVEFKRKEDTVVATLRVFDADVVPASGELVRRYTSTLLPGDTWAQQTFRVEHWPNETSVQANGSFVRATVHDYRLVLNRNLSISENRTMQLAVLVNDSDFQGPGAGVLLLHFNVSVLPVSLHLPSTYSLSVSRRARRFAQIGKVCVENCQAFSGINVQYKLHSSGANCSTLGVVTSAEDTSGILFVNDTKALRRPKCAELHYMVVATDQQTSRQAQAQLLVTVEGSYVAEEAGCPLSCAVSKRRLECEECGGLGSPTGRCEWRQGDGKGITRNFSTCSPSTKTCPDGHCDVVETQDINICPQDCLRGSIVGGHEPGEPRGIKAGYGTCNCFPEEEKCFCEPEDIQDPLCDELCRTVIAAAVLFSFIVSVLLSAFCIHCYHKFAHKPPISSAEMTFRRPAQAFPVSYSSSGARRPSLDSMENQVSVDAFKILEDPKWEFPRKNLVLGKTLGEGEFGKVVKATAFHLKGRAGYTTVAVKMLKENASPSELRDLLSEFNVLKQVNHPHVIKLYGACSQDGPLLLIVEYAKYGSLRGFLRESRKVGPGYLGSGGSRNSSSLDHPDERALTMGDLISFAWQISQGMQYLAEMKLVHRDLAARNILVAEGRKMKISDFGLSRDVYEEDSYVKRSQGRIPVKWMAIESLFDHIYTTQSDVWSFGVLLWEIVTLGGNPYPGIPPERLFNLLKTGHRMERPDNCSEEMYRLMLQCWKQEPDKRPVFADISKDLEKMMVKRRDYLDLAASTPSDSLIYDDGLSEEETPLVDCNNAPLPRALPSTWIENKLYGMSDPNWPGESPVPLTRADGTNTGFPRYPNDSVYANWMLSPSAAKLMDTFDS

Regarding `O=C(c1cccc(Cl)c1F)N1CCN(Cc2cccc(Nc3nccs3)n2)CC1` [MK-8745], the “% Enzyme Activity (relative to DMSO controls)” value was found to be 84.03% in test [1] (500 nM); 97.46% in [2] (500 nM); 97.95% in test [3] (500 nM); 88.73% in test [4] (500 nM); 112.12% in test [5] (500 nM); 76.34% in test [6] (500 nM). The “% Enzyme Activity (relative to DMSO controls)” value came out at 93.76% in test [7] (500 nM); 107.37% in test [8] (500 nM); 93.76% in [9] (500 nM); 96.30% in test [10] (500 nM); 78.55% in test [11] (500 nM); 101.71% in [12] (500 nM). The remaining activity at 0.5 µM came out at 84.5% in test [1] (500 nM); 97.7% in [2] (500 nM); 98.4% in test [3] (500 nM); 92.8% in test [4] (500 nM); 114% in test [5] (500 nM); 78.7% in test [6] (500 nM). The remaining activity at 0.5 µM in test [7] (500 nM) turned out to be 94.7%; in test [8] (500 nM) it was 107%; in [9] (500 nM), 95.2%; in test [10] (500 nM), 96.5%; in [11] (500 nM) it was 87.2%; in [12] (500 nM), 102%.
With `CCn1cc(-c2ccnc3[nH]c(-c4cccc(CN(C)C)c4)cc23)c(-c2ccc(NC(=O)N(C)C)cc2)n1` [GSK1070916], the remaining activity at 0.1 µM is 97.8% in [1]; 102% in test [2]; 103% in test [3]; 92.1% in test [4]; 111% in [5]; 86.9% in [6]. Besides, the remaining activity at 0.1 µM in test [7] amounted to 99.9%; in [8], 113%; in test [9], 174%; in test [10], 93%; in [11], 76.4%; in test [12], 92.3%.
Consider `O=C(O)[C@]1(Cc2cccc(Nc3nccs3)n2)CC[C@@H](Oc2cccc(Cl)c2F)CC1` [MK-5108], for which the remaining activity at 0.1 µM stood at 17.4% in test [1]; 89.9% in test [2]; 92.8% in test [3]; 52.7% in test [4]; 94.4% in test [5]; 24.4% in test [6]. Besides, the remaining activity at 0.1 µM in test [7] turned out to be 103%; in [8] it was 105%; in test [9], 80.2%; in test [10], 117%; in test [11], 84%; in test [12] it was 83%. Moreover, the remaining activity at 0.5 µM was determined as 3.79% in test [1] (500 nM); 103% in test [2] (500 nM); 76.2% in test [3] (500 nM); 14.2% in test [4] (500 nM); 114% in [5] (500 nM); 5.4% in test [6] (500 nM). In addition, the remaining activity at 0.5 µM in test [7] (500 nM) was found to be 91.5%; in test [8] (500 nM), 116%; in test [9] (500 nM), 110%; in test [10] (500 nM), 98.6%; in test [11] (500 nM) it was 81.5%; in test [12] (500 nM), 33.8%.
